Experiment: xn = mol fraction of the nth substance listed
Settings: 100 kPa, Liquid; for viscosity: Concentric cylinders viscometry; for mass density: Vibrating tube method

CCCCCCCO [heptan-1-ol] + CCCCOC(C)=O
Settings	mass density [kg/m3]	viscosity [mPa·s]
293.15 K, x2 = 0	822.2	7.03
293.15 K, x2 = 0.0819	826.3	6.17
293.15 K, x2 = 0.1604	830.3	5.46
293.15 K, x2 = 0.2399	834.5	4.81
293.15 K, x2 = 0.3497	840.6	4.03
293.15 K, x2 = 0.4399	845.7	3.47
293.15 K, x2 = 0.5743	853.6	2.72
293.15 K, x2 = 0.6496	858.2	2.34
293.15 K, x2 = 0.7391	863.8	1.92
293.15 K, x2 = 0.8491	870.9	1.41
293.15 K, x2 = 0.9385	876.8	1.01
298.15 K, x2 = 0	818.7	5.92
298.15 K, x2 = 0.0819	822.6	5.17
298.15 K, x2 = 0.1604	826.4	4.56
298.15 K, x2 = 0.2399	830.5	3.99
298.15 K, x2 = 0.3497	836.3	3.33
298.15 K, x2 = 0.4399	841.3	2.86
298.15 K, x2 = 0.5743	849	2.25
298.15 K, x2 = 0.6496	853.5	1.95
298.15 K, x2 = 0.7391	859	1.61
298.15 K, x2 = 0.8491	865.9	1.22
298.15 K, x2 = 0.9385	871.8	0.9
303.15 K, x2 = 0	815.2	5.03
303.15 K, x2 = 0.0819	818.8	4.37
303.15 K, x2 = 0.1604	822.5	3.84
303.15 K, x2 = 0.2399	826.3	3.35
303.15 K, x2 = 0.3497	831.9	2.78
303.15 K, x2 = 0.4399	836.7	2.4
303.15 K, x2 = 0.5743	844.2	1.89
303.15 K, x2 = 0.6496	848.6	1.65
303.15 K, x2 = 0.7391	853.9	1.38
303.15 K, x2 = 0.8491	860.8	1.06
303.15 K, x2 = 0.9385	866.6	0.81
308.15 K, x2 = 0	811.6	4.3
308.15 K, x2 = 0.0819	815	3.73
308.15 K, x2 = 0.1604	818.4	3.26
308.15 K, x2 = 0.2399	822.1	2.84
308.15 K, x2 = 0.3497	827.4	2.36
308.15 K, x2 = 0.4399	832.1	2.03
308.15 K, x2 = 0.5743	839.3	1.61
308.15 K, x2 = 0.6496	843.6	1.41
308.15 K, x2 = 0.7391	848.9	1.19
308.15 K, x2 = 0.8491	855.7	0.94
308.15 K, x2 = 0.9385	861.4	0.73
313.15 K, x2 = 0	808	3.71
313.15 K, x2 = 0.0819	811	3.19
313.15 K, x2 = 0.1604	814.2	2.78
313.15 K, x2 = 0.2399	817.6	2.42
313.15 K, x2 = 0.3497	822.7	2.01
313.15 K, x2 = 0.4399	827.1	1.74
313.15 K, x2 = 0.5743	834.1	1.4
313.15 K, x2 = 0.6496	838.3	1.23
313.15 K, x2 = 0.7391	843.5	1.06
313.15 K, x2 = 0.8491	850.3	0.85
313.15 K, x2 = 0.9385	856	0.67
318.15 K, x2 = 0	804.4	3.21
318.15 K, x2 = 0.0819	807.2	2.75
318.15 K, x2 = 0.1604	810.1	2.4
318.15 K, x2 = 0.2399	813.3	2.08
318.15 K, x2 = 0.3497	818.1	1.73
318.15 K, x2 = 0.4399	822.3	1.49
318.15 K, x2 = 0.5743	829.2	1.22
318.15 K, x2 = 0.6496	833.3	1.09
318.15 K, x2 = 0.7391	838.4	0.94
318.15 K, x2 = 0.8491	845.1	0.77
318.15 K, x2 = 0.9385	850.9	0.62
323.15 K, x2 = 0	800.7	2.79
323.15 K, x2 = 0.0819	803.2	2.4
323.15 K, x2 = 0.1604	806	2.09
323.15 K, x2 = 0.2399	808.9	1.81
323.15 K, x2 = 0.3497	813.5	1.5
323.15 K, x2 = 0.4399	817.6	1.3
323.15 K, x2 = 0.5743	824.2	1.06
323.15 K, x2 = 0.6496	828.2	0.95
323.15 K, x2 = 0.7391	833.2	0.83
323.15 K, x2 = 0.8491	839.9	0.7
323.15 K, x2 = 0.9385	845.7	0.58
